Reference: patent US20070015733A1, “Aryl Phosphate Derivatives of d4T having Activity Against Resistant HIV Strains” (Parker Hughes Institute, priority 1998, published 2007)

Experiments:
[1] = test system: HIV-1 A17 (Y181C mutant, NNRTI-resistant); experiment: p24 antigen assay, A17 strain in PBMC; format: cell-based; details: PBMNC, p24; read-out: IC50 A17
Text: (§1) In vitro assays of anti-HIV-1 activity.
(§2) Viruses. 20 primary clinical isolates with genotypic and/or phenotypic NRTI-resistance (isolated in the laboratory of D. Richman) and 10 clinical isolates with phenotypic stavudine (d4T) resistance (obtained through the AIDS Research and Reference Reagent Program, NIAID) were used in the current study. The HIV-1 strains HTLVIIIB (wildtype RT, NRTI-sensitive, NNRTI-sensitive), A17 (Y181 C mutant, NNRTI-resistant), A17-variant (Y181C+K103N mutant, NNRTI-resistant), and RT-MDR (M41 L, V106N, T215Y; NRTI-resistant, NNRTI-resistant) were also obtained from the AIDS Research and Reference Reagent Program, NIAID.
(§3) Antiviral susceptibility assays.

[2] = test system: HIV-1 HTLVIIIB; experiment: microbe, parasite or virus in culture; details: read-out: IC50 HTLVIIIB; PBMNC, p24
Method: In vitro assays of anti-HIV-1 activity. Normal human peripheral blood mononuclear cells (PBMNC) from HIV-negative donors were cultured 72 hours in RPMI 1640 supplemented with 20% (v/v) heat-inactivated fetal bovine serum (FBS), 3% interleukin-2, 2 mM L-glutamine, 25 mM HEPES, 2 g/L NaHCO3, […], and […] prior to exposure to HIV-1 at a multiplicity of infection (MOI) of 0.1 during a 1 hour adsorption period at 37° C. in a humidified 5% CO2 atmosphere. Subsequently, cells were cultured in 96-well microtiter plates ([…]; 2×10^6 cells/mL) in the presence of various concentrations of d4T phosphoramidates and aliquots of culture supernatants were removed from the wells on the 7th day after infection for p24 antigen assays, as previously described (Uckun et al., 1998, Antimicrobial Agents and Chem., 42(2):383-388). The applied p24 enzyme immunoassay (EIA) was the unmodified kinetic assay commercially available from Coulter Corporation/Immunotech, Inc. (Westbrooke, Me.), which utilizes a murine mAb to HIV core protein coated onto microwell strips to which the antigen present in the test culture supernatant samples binds. Percent viral inhibition was calculated by comparing the p24 values from untreated infected cells (i.e., virus controls).
The anti-HIV activity of the compounds was examined by evaluating their ability to inhibit HIV replication in peripheral blood mononuclear cells using previously described procedures (Uckun et al., 1998, Antimicrobial Agents and Chem., 42(2):383-388). Percent inhibition of viral replication was calculated by comparing the p24 antigen levels from the test substance-treated infected cells with those from vehicle-treated infected cells.
Antiviral susceptibility assays. Phenotypic drug susceptibility studies of HIV-1 isolates and strains were performed by measuring the production of the p24 gag protein in peripheral blood mononuclear cells (PBMC) from seronegative healthy volunteers in the presence of increasing concentrations of the anti-HIV agent using the quantitative Coulter HIV-1 p24 antigen ezyme immunoassay (EIA) and HIV-1 p24 Antigen Kinetic Standard (Beckman Coulter), as previously described (Uckun, 1998, Antimicrobial Agents and Chemotherapy 37(4): 835-38). Informed consent was obtained from the blood donors according to DHHS guidelines using consent forms approved by the Institutional Review Board. In brief, PBMC were cultured for 72 h in RPMI 1640 medium (Gibco) supplemented with 20% (vol/vol) heat-inactivated fetal bovine serum, 5% human interleukin-2 (Zeptometrix), 2 mM L-glutamine, 25 mM HEPES, 2 g/L NaHCO3, 100 U/ml penicillin/streptomycin (Gibco), 50 μg/ml gentamicin (Gibco), and 5 μg/ml phytohemagglutinin-P (PHA-P) (Sigma) for 24-72 hours prior to exposure to HIV at a multiplicity of infection of 0.001-0.1 during a 1-h adsorbtion period at 37±1° C. in a humidified 5-7% CO2 atmosphere. Subsequently, cells were cultured in 96-well microtiter plates (100 μl/well; 2×10^6 cells/ml, triplicate wells) in the presence of the anti-HIV agents at 6-7 different concentrations ranging from 0.0001 μM to 100 μM, and 25 μL aliquots of culture supernatants were removed from the wells on day 6 after infection for p24 EIA, as previously described (Uckun, 1998, Antimicrobial Agents and Chemotherapy, 37(4):835-38). Controls included uninfected and untreated cells (background control) and infected but untreated (virus control) cells. The p24 EIA utilizes a murine monoclonal antibody to HIV core protein used to coat microwell strips to which the antigen present in the test culture supernatant samples binds. Percent inhibition of viral replication was calculated by comparing the p24 values from the test substance-treated infected cells with p24 values from untreated infected cells (i.e., virus controls). The IC50 values were determined using the Statview statistics program (SAS Institute, Inc.).

[3] = Alkaline chemical hydrolysis rate (NaOH/methanol, HPLC); format: physicochemical; details: alkali hydrolysis
Method: All chemicals were purchased from Aldrich (Milwaukee, Wis.), with the exception of d4T which was synthesized in-house. All syntheses were performed under a nitrogen atmosphere. ^1H, ^13C, and ^31P NMR were obtained on a Varian Mercury 300 instrument at ambient temperature in CDCl3. FT-IR spectra were recorded on a Nicolet Protege 460 spectrometer. MALDI-TOF mass spectra were obtained by using a Finnigan MAT 95 system. UV spectra were recorded by using a Beckmann UV-VIS spectrophotometer (Model 3DU 74000) with a cell path length of 1 cm. HPLC purification was achieved by using a reverse-phase Lichrospher column (250×4 mm, Hewlett-Packard, RP-18, Cat # 79925) and an isocratic flow (1 ml/minute) consisting of water (70%) and acetonitrile (30%). The alkaline chemical hydrolysis was conducted at room temperature with sodium hydroxide (1 ml of 0.05N) and 3 ml of methanol solution containing 10 mg of the substrates in a Teflon lined reaction vial. […] The disappearance of the starting material was monitored as a function of time. […]
Statistical Analysis. The IC50 values were calculated from each set of triplicate wells using nonlinear regression modeling of the exponential form of the linearized equation. […] Hydrolysis rates were determined by fitting single exponential decay equations to the disappearance of the compound in alkali conditions. […]

[4] = test system: HIV-1 RT-MDR (NRTI-resistant, NNRTI-resistant); experiment: p24 antigen assay, RT-MDR strain; format: cell-based; details: p24; read-out: IC50 RTMDR
[5] = Octanol/water partition coefficient, shake flask method; format: physicochemical
Method: Partition Coefficients. The octanol/water partition coefficient was determined by the shake flask method. The phosphoramidate analogs were added to 2 ml of water and 2 ml of octanol in a glass vial. The mixture was shaken for 4 hours at room temperature. The two phases were carefully separated and filtered through a Millipore filter and analyzed by HPLC. The partition coefficient was calculated using the ratio of the area under the curve for octanol and water respectively.

[6] = test system: HIV-1 A17-variant (Y181C+K103N mutant, NNRTI-resistant); experiment: p24 antigen assay, A17-variant strain in PBMC; format: cell-based; details: PBMNC, p24; read-out: IC50 A17V
Text: as §1, §2, §3

SMILES	IC50 [1]	IC50 [2]	Hydrolysis Rate [3]	IC50 [4]	Partition Coefficient (log P) [5]	IC50 [6]
COC(=O)C(C)NP(=O)(OCC1C=CC(n2cc(C)c(=O)[nH]c2=O)O1)Oc1ccccc1Cl (centres unmarked) [Compound 13, 5′-[2-Chlorophenylmethoxyalaninylphosphate]-2′,3′-didehydro-3′-deoxythymidine]	34 ± 20 nM	3 ± 1 nM	0.0370 min⁻¹	187 ± 108 nM	0.84	15 ± 8 nM
COC(=O)C(C)NP(=O)(OCC1C=CC(n2cc(C)c(=O)[nH]c2=O)O1)Oc1cccc(Br)c1 (centres unmarked) [Compound 9, 5′-[3-Bromophenylmethoxyalaninylphosphate]-2′,3′-didehydro-3′-deoxythymidine]	42 ± 24 nM	2 ± 2 nM	0.0338 min⁻¹	493 ± 285 nM	1.12	
